Test results: patent US11820961B2, “Musk compositions and methods of use thereof” (Takasago International Corporation, priority 2015, dated 2023)

Assays:
[1] = tested on: salivary alpha-amylase; experiment: salivary alpha-amylase level before and after a stress test (kinetic reaction assay kit); format: in vivo, human; settings: Table 6; before vs immediately after ten minute stress test; about 10-15 panelists; DPG = +60.7%
Excerpt: Salivary alpha-amylase is widely used as a biomarker for acute stress. The purpose of this study was to investigate the influence of individual fragrance compounds, particularly musk compounds, on a subject's salivary alpha-amylase levels before and after exposure to a stressor. The subject sniffed each musk compound, then was exposed to a stressor. The goal was to identify one or more specific musk compounds which caused the least amount of change in salivary alpha-amylase levels or decreased a subject's salivary alpha-amylase levels compared to before administration, thereby reducing or inhibiting a response to stress stimuli. […] The p values of the control as compared to each musk compound were calculated as follows: rosamusk (p=0.0366), habanolide (p=0.1163), ambrettolide (p=0.1397).
Twelve to fourteen female panelists age 30-45 participated in this study for each of the test materials. Stress was induced using a timed ten minute mathematical/word test in a small group competition setting. The musk material was introduced at intervals during the stress test.
Saliva was collected before and immediately after the stress test. Saliva samples were assayed for salivary alpha-amylase activity using a commercially available kinetic reaction assay kit (Salimetrics®, State College, Pa.).
(§1) Fourteen female panelists age 30-45 participated in this study. Stress was induced using a timed ten minute mathematical/word test in a small group competition setting. Fragrance was introduced at intervals during the stress test. Saliva was collected before (Pre) and immediately after (Post) the stress test. Saliva samples were assayed for salivary alpha-amylase using a commercially available kinetic reaction assay kit and for salivary cortisol using a highly sensitive enzyme immunoassay kit (Salimetrics®, State College, Pa.).
(§2) Stress was induced in a number of panelists (about 10-15) for each tested compound using a timed ten minute mathematical/word test in a small group competition setting. The test compound was introduced at intervals during the stress test.
(§3) Saliva was collected before and immediately after the stress test. Saliva samples were assayed for salivary cortisol levels and salivary alpha-amylase activity using a commercially available kinetic reaction assay kit (Salimetrics®, State College, Pa.).
(§4) Methodology for number of drops. Ten to twenty-four panelists age 30-45 participated in this study. The amount of fragrance tested was divided equally and applied onto 6 blotter cards each 3 by 5 inches in size. They were weighed and placed in the test room 30 minutes before the stress test to equilibrate.
(§5) Stress was induced using a timed ten-minute mathematical/word test in a small group competition setting. The blotter cards were removed and weighed again after the stress test. […]

[2] = tested on: salivary cortisol; experiment: salivary cortisol level before and after a stress test (enzyme immunoassay kit); format: in vivo, human; settings: Table 6; before vs immediately after ten minute stress test; about 10-15 panelists; DPG = −10.9%
Excerpt: Salivary cortisol is widely used as a biomarker for stress. The purpose of this study was to investigate the influence of individual fragrance compounds, particularly musk compounds, on a subject's cortisol levels before and after exposure to a stressor. The subject sniffed each musk compound, then was exposed to a stressor. The goal was to identify one or more specific musk compounds which caused the least amount of change in cortisol levels or decreased a subject's cortisol levels compared to before administration, thereby reducing or inhibiting a response to stress stimuli.
as §1, §2, §3, §4, §5

[3] = chassis-air partition coefficient, BC-162 shampoo chassis; format: physicochemical
Excerpt: (§6) The chassis-air partition coefficient can be measured for materials in various chassis.
(§7) Ki,chassis-air is the chassis-air partition coefficient for component i in the fragrance formula
(§8) Ci, chassis is the concentration of component i in the product formula chassis in molarity, M
(§9) Ci, air is the concentration of component i in the headspace air in equilibrium with the formula chassis in molarity, M
(§10) For the “Example Accord” in the BC-162 shampoo chassis components, the log chassis-air partition coefficients are as listed in Table 11.

[4] = chassis-air partition coefficient, APDO soft solid chassis; format: physicochemical
Excerpt: as §6, §7, §8, §9, §10

CC(=O)C(C)CC[C@H]1CCC(C)C1(C)C (stereo partly drawn) [3-methyl-5-((1R)-2,2,3-trimethylcyclopentyl)pentan-2-one]
Salivary Amylase Data (change in salivary alpha-amylase) [1]: −6.1%

CC1=CCC(C/C=C(\C)CO)C1(C)C (stereo not drawn) [Hindinol ®, (E)-2-methyl-4-(2,2,3-trimethyl-1-cyclopent-3-enyl)but-2-en-1-ol]
Salivary Amylase Data (change in salivary alpha-amylase) [1]: +82.3%
Cortisol Data (change in salivary cortisol) [2]: −25.0%

CC1CCCCCCCCCCCCC(=O)C1 [L-Muscone]
Salivary Amylase Data (change in salivary alpha-amylase) [1]: +14.5%
Cortisol Data (change in salivary cortisol) [2]: +25.6%

CC(=O)c1cc2c(cc1C)C(C)(C)C(C)C2(C)C (stereo not drawn) [Phantolide, 1-(1,1,2,3,3,6-hexamethyl-2H-inden-5-yl)ethanone]
Salivary Amylase Data (change in salivary alpha-amylase) [1]: −19.2%
Cortisol Data (change in salivary cortisol) [2]: −12.3%

C=C.CCCCCCCCCCCC(=O)O [ZENOLIDE, ethylene dodecanoate]
logK, BC162 (log chassis-air partition coefficient) [3]: 6.131
logK, APDO Soft Solid (log chassis-air partition coefficient) [4]: 6.966
